# Laboratory results from patent publication US20150174207A1, “METHODS FOR TREATING CANCER WITH GHRH AGONISTS” (UNIVERSITY OF MIAMI, priority 2013, published 2015).
# Entries after “also recorded” stand apart in the source; their conditions may differ. Marks after values point to notes of the source that are not given here. [ ]: non-standard residue; d: D form. The star is where a group is joined. Desaminotyrosyl = O=C(CCc1ccc(O)cc1)*; Agmatine = N=C(N)NCCCCN*; Nle = CCCC[C@H](N)C(=O)O; Orn = NCCC[C@H](N)C(=O)O; Abu = CC[C@H](N)C(=O)O
# Key:
# [1] = tested on: U-87 MG, human GBM tumors; test: Growth of U-87 MG glioblastoma xenografts in nude mice; assay type: in vivo; details: U-87 MG xenografts in nude mice, 6 wk; JI-34 50 μg/kg/d s.c., DOX 13 μmol/kg/wk i.v.; vs. control
# Description: (§1) Six-wk-old nude mice (Ncr nu/nu) were obtained from the National Cancer Institute (Bethesda, Md.). The animals were housed in sterile cages in a temperature-controlled room with a 12-h light/12-h dark schedule and were fed with autoclaved chow and water, ad libitum. The Institutional Animal Care and Use Committee, VA Medical Center Miami, Fla. fully approved the animal protocols. For the therapy study, 10^6 cells per mouse of the human glioblastoma cell line, U-87 MG (American Type Culture Collection, ATCC), were injected into the flanks of four nude mice (Ncr nu/nu) under isoflurane anesthesia (Baxter). A month later, the resulting tumors were harvested and minced into ˜3 mm^3 pieces and transplanted into flanks of nude mice, under anesthesia, using a minitrocar. When the tumors reached ˜32 mm^3, the mice were randomized into four groups. […] Tumor volume was measured with microcalipers once a week and calculated using the formula: (length×width×height×in)/6. Tumor doubling time was calculated using the formula: [study duration×logarithm (LOG) 2]/(LOG final tumor volume−LOG initial tumor volume). […]
# [2] = tested on: U-87 MG xenografts; test: Western blot of necropsied in vivo tumor samples; design: species or system nude mice; details: xenograft samples after 6 wk treatment
# Description: Six-wk-old nude mice (Ncr nu/nu) were obtained from the National Cancer Institute (Bethesda, Md.). The animals were housed in sterile cages in a temperature-controlled room with a 12-h light/12-h dark schedule and were fed with autoclaved chow and water, ad libitum. The Institutional Animal Care and Use Committee, VA Medical Center Miami, Fla. fully approved the animal protocols. For the therapy study, 10^6 cells per mouse of the human glioblastoma cell line, U-87 MG (American Type Culture Collection, ATCC), were injected into the flanks of four nude mice (Ncr nu/nu) under isoflurane anesthesia (Baxter). A month later, the resulting tumors were harvested and minced into ˜3 mm^3 pieces and transplanted into flanks of nude mice, under anesthesia, using a minitrocar. When the tumors reached ˜32 mm^3, the mice were randomized into four groups. The animals received the following treatments for 6 wk: (Group 1) control, 16 tumors, vehicle solution; (group 2) agonist JI-34, 1 μg/20 g, s.c., daily, 19 tumors; (group 3) DOX, 260 nmol/20 g, i.v., weekly on Thursdays, 19 tumors; and (group 4) JI-34 (1 μg/20 g daily)+DOX (260 nmol/20 g), 16 tumors. Tumor volume was measured with microcalipers once a week and calculated using the formula: (length×width×height×in)/6. Tumor doubling time was calculated using the formula: [study duration×logarithm (LOG) 2]/(LOG final tumor volume−LOG initial tumor volume). At the end of the experiment, the mice were killed under pentobarbital anesthesia, tumors were excised and weighed; necropsy was performed. Samples free of necrotic debris were immediately snap frozen in liquid nitrogen and stored at −80° C. for further analyses.
# Protein from the tumor tissue was isolated using the NucleoSpin kit (Macherey-Nagel). Protein concentrations were determined by NanoDrop (NanoDrop Technologies). Equal amounts of protein were resuspended in sample loading buffer (0.25 M Trizma Base, 8% SDS, 40% glycerol, 0.004% bromophenol blue, 4% P3-mercaptoethanol; pH 6.8), boiled for 3 min and separated by 12% SDS-polyacrylamide gel electrophoresis. Proteins from the gel were then transferred onto nitrocellulose membranes, which were blocked with 50-50% Tris-buffered saline (20 mM Tris.HCl pH 7.5, 150 mM NaCl) and Odyssey blocking buffer for 1 h at room temperature, followed by an overnight incubation at 4° C. with the following primary antibodies: growth hormone-releasing hormone receptor (GHRH-R), (ab28692) nestin (ab92391), glial fibrillary acid protein (GFAP) (ab48050) (all from AbCam), β-actin (A5441; Sigma-Aldrich), or p53 (9282; Cell Signaling Technology). […] The protein bands were quantified using […] (LI-COR Biosciences); integrated density values of triplicate experiments were plotted.
# [3] = tested on: U-87 cell-derived tumors; test: Human Cancer PathwayFinder quantitative PCR array of dissected tumor samples; assay type: in vivo, nude mice; details: tumors after 6 wk treatment; fold change (ΔΔCt) vs. control
# Description: as §1
# Total RNA was isolated from representative, DNase treated, U-87 MG dissected tumor samples using a NucleoSpin kit according to the manufacturer's instructions (Macherey-Nagel). Four tumor samples from each group were analyzed. The yield and the quality of RNA samples were determined spectrophotometrically using 260 nm, and 260/280- and 260/230-nm ratio. […]
# The Human Cancer PathwayFinder quantitative PCR array (PAHS-033A; Qiagen) used in our study contains 84 unique genes related to cell proliferation, apoptosis, cell cycle, angiogenesis, invasion, and metastasis. […] Fold changes in gene expression were calculated using the ΔΔCt method and five stably expressed housekeeping genes (B2M, HPRT1, RPL13A, GAPDH, and ACTB) were used for normalization of the results.
# [4] = tested on: U-87 MG cells; test: Multidrug resistance (MDR) assay, calcein retention; assay type: cell-based, human; details: JI-34 1 μM pretreatment 24 h, DOX 100 nM, cyclosporin-A 1/1,000 dilution; 1 h; vs. control
# Description: The multidrug resistance assays were performed according to the manufacturer's instructions (Cayman Chemical). U-87 MG cells were seeded, 5×10^4 cells per well density in 100 μL medium in 96-well, black, clear-bottom plates and grown overnight in a humidified incubator at 37° C. […] Afterward, the cells were incubated for 1 h, then calcein AM/Hoechst dye combined staining solution was added. Fifteen minutes later, both cell density (at excitation and emission wavelengths of 355 nm and 465 nm, respectively) and calcein retention (at excitation and emission wavelengths of 485 nm and 535 nm, respectively) were detected with the help of a Victor3 multilabel counter. Relative calcein retention values were expressed as a function of cell density.
# [5] = tested on: U-87 MG cells; test: ApoLive-Glo Multiplex assay (viability and apoptosis); assay type: cell-based, human; details: JI-34 1 μM, DOX 100 nM, after 24 h of treatment
# Description: Determinations of viability and apoptosis were performed from freshly seeded cell samples (10^4 cells per well, in 100 μL media, in a 96-well plate) with the help of ApoLive-Glo Multiplex Assay (Promega), according to the manufacturer's instructions. First the cells received full medium containing the following treatments: Groups 1 (control) and 3, vehicle solution; groups 2 and 4, JI-34 (1 μM final concentration). After 24 h, the cells received the following treatments: group 1, (vehicle solution); group 2, JI-34; group 3, DOX (100 nM final concentration); and group 4, JI-34+DOX. After another 24 h of incubation, viability reagent was added to the wells and fluorescence was measured by Victor3 multilabel counter. Then Caspase-Glo 3/7 apoptosis reagent was added and luminescence was determined.
# [6] = tested on: U-87 MG cells; test: Cell volume determination (intracellular water space, 3-OMG); assay type: cell-based, human; details: repeated exposure 3 wk, 1 μM JI-34 daily, DOX weekly at 100 nM; vs. control
# Description: (§2) U-87 MG cells were cultured in Eagle's minimum essential medium (ATCC) medium [supplemented with 10% FBS (ATCC) and 0.1% penicillin/streptomycin] at 37° C. and 5% CO2 atmosphere. For cell count and cell size determination, […] were seeded into T-25 flasks. The medium was changed two to three times a week. The following treatment in vitro groups were set up: (Group 1) control, vehicle solution; (group 2) JI-34 at 1 μM final concentration, daily; (group 3) DOX at 100 nM final concentration, weekly on Thursdays; and (group 4) JI-34, 1 μM and DOX, 100 nM. After 3 wk, cell count and cell size were determined by Z Series Coulter Counter (Beckman Coulter).
# Cell volume was estimated by measuring the intracellular water space as follows. Briefly, 1 mM 3-O-methylglucose (3-OMG) and 0.5 μCi/mL [3H]-3-OMG were added to the culture 6 h before the volume assay. At the end of the incubation period, culture medium was aspirated, and an aliquot was saved for radioactivity determination. […] Radioactivity in the cell extracts and media was determined, and an aliquot of the cell extract was used for protein estimation with the Bio-Rad bicinchoninic acid kit. Values were normalized to protein level, and cell volume was expressed as microliters/milligram protein.
# [7] = tested on: U-87 MG cells; test: Cell counting after repeated exposure for 3 wk (Coulter Counter); assay type: cell-based, human; details: repeated exposure 3 wk, 1 μM JI-34 daily, DOX weekly at 100 nM; vs. control
# Description: as §2
# [8] = tested on: U-87 MG cells; test: MTT proliferation assay in vitro; assay type: cell-based, human; details: JI-34 1 μM, DOX 100 nM; combination: 24 h JI-34 pretreatment, then DOX+JI-34 48 h
# Description: For proliferation studies, 104 cells per well were seeded in 100 μL media, in a 96-well plate, and incubated for 24 h in a humidified incubator at 37° C. Then, culture medium was replaced with FBSfree medium (starvation) for 24 h. After 24 h, the cells received full medium containing the following treatments: Groups 1 (control) and 3, vehicle solution; groups 2 and 4, JI-34 (1 μM final concentration). After another 24 h, the cells received the following treatments: group 1, vehicle solution; group 2, JI-34; group 3, DOX (100 nM final concentration); and group 4, JI-34+DOX. Then, they were incubated for 48 h and the effect on cell proliferation was evaluated by using the MTT assay (CellTiter 96 Non-Radioactive Cell Proliferation Assay; Promega), according to the manufacturer's instructions with the help of a Victor3 multilabel counter (Perkin-Elmer).
# [9] = tested on: U-87 MG cells; test: Immunocytochemistry / differentiation in reduced serum-containing medium; assay type: cell-based, human; details: JI-34 1 μM, 0.1% FBS-containing medium, 2 d; vs. DMSO control
# Description: Cells were seeded onto coverslips in six-well plates (50,000 cells per well) in 10% FBS-containing growth medium. This medium was replaced with serum-free medium the following day for 24 h. Thereafter, GHRH agonist (JI-34, 1 μM) was added in medium supplemented with 0.1% FBS and remained for the consecutive 2 d. Control cells received vehicle (DMSO). At the end of the treatment, phase-contrast images of live cells were collected and cells were fixed in ice-cold acetone for 10 min, washed with PBS three times, and blocked with 2% goat serum in PBS for 30 min. GFAP (Abcam; 1:500 dilution) or nestin (BD Transduction Laboratories; 1:75 dilution) antibodies were added in PBS for 1 h. Anti-rabbit and anti-mouse secondary antibodies (Alexa Fluor 488; Jackson Immunoresearch) were also applied for 1 h. Coverslips were mounted in Vectashield mounting medium containing DAPI for nuclear staining (Vector Laboratories). Images were acquired on a Nikon Eclipse Ti fluorescence microscope (Nikon Instruments).
# [10] = tested on: U-87 MG cells; test: ELISA of p53, FGF basic and TGFβ; assay type: cell-based, human; details: cell culture supernatant, 1 μM JI-34; vs. control
# Description: Glioblastoma cells (10^5 cells per well) were seeded onto six-well plates, cultured overnight, and then exposed to compounds used in the 3-(4,5-dimethylthiazol-2-yl)-2,5-diphenyltetrazolium bromide proliferation assays: Groups 1 (control) and 3, vehicle solution; groups 2 and 4, GHRH agonists JI-34 (1 μM final concentration). After another 24 h, the cells received the following treatments: Group 1, vehicle solution; group 2, JI-34; group 3, doxorubicin (DOX) (100 nM final concentration); and group 4, JI-34+DOX. Concentrations of the specific proteins in the medium (in the case of FGF basic or TGFβ-1) or in samples of scraped and homogenized cells (in the case of p53) were determined after 24 h using ELISA kits according to the manufacturer's instructions. Human TGFβ and FGF basic ELISA kits were obtained from AbCam, whereas p53 was measured with a PathScan Sandwich ELISA kit (Cell Signaling Technology). Readings were normalized to protein concentrations as determined by NanoDrop (NanoDrop Technologies).
Molecule,inhibition of tumor growth [1] [%],expression of GFAP [2],expression of the neuroectodermal stem-cell marker nestin [2],Relative expression of B-cell lymphoma 2 (Bcl-2) [3],Relative expression of Integrin α3 (CD49C) [3],Relative expression of S100 calcium binding protein A4 (S100-A4) [3],increase in calcein retention [4] [%],increase in apoptosis [5],decrease in the volume of the cells (intracellular water content) [6] [%],decrease in the number of cells [7],inhibitory effect on proliferation (MTT) [8],increase in GFAP expression (integrated density values) ([2]; compared with the control) [%],GFAP labeling (immunofluorescence) [9],nestin level (immunofluorescence) [9],decrease in level of TGFβ [10] [%],decrease in level of bFGF [10] [%]
"COc1cccc2c1C(=O)c1c(O)c3c(c(O)c1C2=O)C[C@@](O)(C(=O)CO)C[C@@H]3O[C@H]1C[C@H](N)[C@H](O)[C@H](C)O1 [DOX, doxorubicin]",35,decrease,increased,−1.8*,−1.65*,−2.34*,7,182%,20,52%,no significant effect,,,,,
"[Dat^1, Orn^12, Abu^15, Orn^21, Nle^27, Asp^28, Agm^29]hGHRH(1-29)NH2 ([Desaminotyrosyl]ADAIFTNSYR[Orn]VL[Abu]QLSAR[Orn]LLQDI[Nle]D[Agmatine]-NH2) [JI-34]",,,decreased,,,,,no effect,,no significant effect,no significant effect,70,high levels of GFAP were detected; also recorded: elevation in the intensity of GFAP-labeling,did not change notably; also recorded: did not show a significant change,24,37
